Experimental data published in ChEMBL document CHEMBL3046568, “Synthesis, antimicrobial and DNA cleavage studies of some 4-aryloxymethylcoumarins obtained by reaction of 4-bromomethylcoumarins with bidentate nucleophiles” (2012).
≈ marks a conversion by molar mass, not a printed value. Calls of active or inactive are those of the source. The calls are words filed in the database; no cut-off is given here.

Assays:
[1] = test system: Escherichia coli; experiment: Induction of Escherichia coli MTCC 1089 DNA cleavage at 50 ug after 2 hr by agarose gel electrophoresis
[2] = test system: Penicillium chrysogenum; experiment: Antifungal activity against Penicillium chrysogenum after 3 to 4 days by serial dilution method; format: functional; conditions: for MIC: Penicillium chrysogenum
[3] = test system: Candida albicans; experiment: Antifungal activity against Candida albicans after 3 to 4 days by serial dilution method; format: functional; conditions: for MIC: Candida albicans
[4] = test system: Staphylococcus aureus; experiment: Antibacterial activity against Staphylococcus aureus MTCC 3160 after 24 hr by disk diffusion method; format: functional; conditions: for MIC: Staphylococcus aureus, MTCC 3160, 24 h
[5] = test system: Staphylococcus aureus; experiment: Induction of Staphylococcus aureus MTCC 3160 DNA cleavage at 50 ug after 2 hr by agarose gel electrophoresis
[6] = test system: Aspergillus niger; experiment: Induction of Aspergillus niger DNA cleavage at 50 ug after 2 hr by agarose gel electrophoresis
[7] = test system: Bacillus subtilis; experiment: Antibacterial activity against Bacillus subtilis MTCC 297 after 24 hr by disk diffusion method; format: functional; conditions: for MIC: Bacillus subtilis, MTCC 297, 24 h
[8] = test system: Klebsiella pneumoniae; experiment: Antibacterial activity against Klebsiella pneumoniae MTCC 3384 after 24 hr by disk diffusion method; format: functional; conditions: for MIC: Klebsiella pneumoniae, MTCC 3384, 24 h
[9] = test system: Mucor fuscus; experiment: Antifungal activity against Mucor fuscus after 3 to 4 days by serial dilution method; format: functional; conditions: for MIC: Mucor fuscus
[10] = test system: Enterococcus faecalis; experiment: Antibacterial activity against Enterococcus faecalis MTCC 3382 after 24 hr by disk diffusion method; format: functional; conditions: for MIC: Enterococcus faecalis, MTCC 3382, 24 h
[11] = test system: Fusarium oxysporum; experiment: Antifungal activity against Fusarium oxysporum after 3 to 4 days by serial dilution method; format: functional; conditions: for MIC: Fusarium oxysporum
[12] = test system: Aspergillus niger; experiment: Antifungal activity against Aspergillus niger after 3 to 4 days by serial dilution method; format: functional; conditions: for MIC: Aspergillus niger
[13] = test system: Pseudomonas aeruginosa; experiment: Antibacterial activity against Pseudomonas aeruginosa MTCC 1034 after 24 hr by disk diffusion method; format: functional; conditions: for MIC: Pseudomonas aeruginosa, MTCC 1034, 24 h
[14] = test system: Escherichia coli; experiment: Antibacterial activity against Escherichia coli MTCC 1089 after 24 hr by disk diffusion method; format: functional; conditions: for MIC: Escherichia coli, MTCC 1089, 24 h
[15] = test system: Aspergillus fumigatus; experiment: Antifungal activity against Aspergillus fumigatus after 3 to 4 days by serial dilution method; format: functional; conditions: for MIC: Aspergillus fumigatus

Compound	Activity [1]	inhibition zone (IZ) [2] [mm]	MIC [2] [mg/L]	inhibition zone (IZ) [3] [mm]	MIC [3] [mg/L]	inhibition zone (IZ) [4] [mm]	MIC [4] [mg/L]	Activity [5]	Activity [6]	inhibition zone (IZ) [7] [mm]	MIC [7] [mg/L]	inhibition zone (IZ) [8] [mm]	MIC [8] [mg/L]	inhibition zone (IZ) [9] [mm]	MIC [9] [mg/L]	inhibition zone (IZ) [10] [mm]	MIC [10] [mg/L]	inhibition zone (IZ) [11] [mm]	MIC [11] [mg/L]	inhibition zone (IZ) [12] [mm]	other results
Cc1ccc2c(COc3cccc(O)c3)cc(=O)oc2c1	inactive	18	12.5 (≈ 44.3 µM)	9	25 (≈ 88.6 µM)	14	12.5 (≈ 44.3 µM)	inactive	inactive	14	12.5 (≈ 44.3 µM)	13	12.5 (≈ 44.3 µM)	14	25 (≈ 88.6 µM)	16	12.5 (≈ 44.3 µM)	9	50 (≈ 177 µM)	19	MIC [12]: 6.25 mg/L (≈ 22.1 µM); inhibition zone (IZ) [13]: 16 mm; MIC [13]: 12.5 mg/L (≈ 44.3 µM); inhibition zone (IZ) [14]: 9 mm; MIC [14]: 50 mg/L (≈ 177 µM); inhibition zone (IZ) [15]: 16 mm; MIC [15]: 12.5 mg/L (≈ 44.3 µM)
CC(=O)Nc1cccc(OCc2cc(=O)oc3c2ccc2ccccc23)c1	inactive	18	12.5 (≈ 34.8 µM)	16	12.5 (≈ 34.8 µM)	12	25 (≈ 69.6 µM)	inactive	inactive	13	12.5 (≈ 34.8 µM)	15	12.5 (≈ 34.8 µM)	16	12.5 (≈ 34.8 µM)	12	25 (≈ 69.6 µM)	11	50 (≈ 139 µM)	19	MIC [12]: 6.25 mg/L (≈ 17.4 µM); inhibition zone (IZ) [13]: 19 mm; MIC [13]: 6.25 mg/L (≈ 17.4 µM); inhibition zone (IZ) [14]: 13 mm; MIC [14]: 25 mg/L (≈ 69.6 µM); inhibition zone (IZ) [15]: 17 mm; MIC [15]: 12.5 mg/L (≈ 34.8 µM)
O=c1cc(COc2cccc(OCc3cc(=O)oc4ccc(Br)cc34)c2)c2cc(Br)ccc2o1	Active	18	12.5 (≈ 21.4 µM)	17	6.25 (≈ 10.7 µM)	17	6.25 (≈ 10.7 µM)	Active	Active	16	6.25 (≈ 10.7 µM)	17	6.25 (≈ 10.7 µM)	18	12.5 (≈ 21.4 µM)	19	6.25 (≈ 10.7 µM)	13	25 (≈ 42.8 µM)	19	MIC [12]: 6.25 mg/L (≈ 10.7 µM); inhibition zone (IZ) [13]: 21 mm; MIC [13]: 6.25 mg/L (≈ 10.7 µM); inhibition zone (IZ) [14]: 14 mm; MIC [14]: 12.5 mg/L (≈ 21.4 µM); inhibition zone (IZ) [15]: 18 mm; MIC [15]: 12.5 mg/L (≈ 21.4 µM)
CC(=O)Nc1cccc(OCc2cc(=O)oc3ccc4ccccc4c23)c1	inactive	18	12.5 (≈ 34.8 µM)	15	12.5 (≈ 34.8 µM)	13	12.5 (≈ 34.8 µM)	inactive	inactive	11	25 (≈ 69.6 µM)	15	12.5 (≈ 34.8 µM)	15	25 (≈ 69.6 µM)	10	25 (≈ 69.6 µM)	12	25 (≈ 69.6 µM)	19	MIC [12]: 6.25 mg/L (≈ 17.4 µM); inhibition zone (IZ) [13]: 18 mm; MIC [13]: 12.5 mg/L (≈ 34.8 µM); inhibition zone (IZ) [14]: 13 mm; MIC [14]: 25 mg/L (≈ 69.6 µM); inhibition zone (IZ) [15]: 17 mm; MIC [15]: 12.5 mg/L (≈ 34.8 µM)
